The numbers were not newly measured in patent US20240423900A1, “ANHYDROUS BARRIER AND ANTIOXIDANT COMPOSITIONS” (Baek Clinical Inc., priority 2023, published 2024), which cites them from elsewhere.

For series [1], the system named is human skin. The settings on record: general statement, no test described.
For series [2] the following is noted: general statement, no test described.

SMILES strings stand for the structures.

On to `CC(C)CCCC(C)CCCC(C)CCCCC(C)CCCC(C)CCCC(C)C` (centres unmarked) [Squalane, squalane], for which, in series [1], the “human skin irritant or sensitizer” value was “not a significant human skin irritant or sensitizer”. The acute toxicity result in series [2] is reported as “low acute toxicity”.
